# In patent US12358983B2, “Combination of anti CD19 antibody with a BCL-2 inhibitor and uses thereof” (Incyte Corporation, priority 2016, dated 2025):
# Legend:
# MEC-1 cells = experiment: Cytotoxicity (ADCC assay with NK effector cells) of MOR00208 and venetoclax alone and in combination in MEC-1 cells; type: cell-based
# From the text: Cell lines tested: MEC-1 cells (DSMZ# ACC497). Culture conditions of cell lines used are according to supplier's information. Cell Medium: lscove's Modified Dulbecco's Medium (IMDM), Invitrogen, Cat No.: 31980; RPMI1640, Invitrogen, Cat No.: 31870; GlutaMAX, Invitrogen, CAT No.: 35050; FCS: Sigma CAT No.: F7524 LOT No.: 111M3396. NKs: RPMI1640, with GlutaMAX, Invitrogen, Cat No.: 31870, 10% FCS; Biocoll: Biochrome AG CAT No.: L6115 LOT No.: 0034D; MACS NK cell isolation kit: Miltenyi Biotec CAT No.: 130-092-657 LOT No.: 5150402327; venetoclax: Selleck Chem. CAT No.: S8048 LOT No.: S804803; FCS: Sigma CAT No.: F7524 LOT No.: 111M3396; and RefmAb33 (anti-RSV) with same Fc region as MOR00208.
# The cytotoxic potential of MOR00208 and venetoclax alone and in combination were tested in the MEC-1 cell line (CLL). Target cell killing is measured using the following parameters: venetoclax mono treatment at concentrations of 3 μM, 6.5 μM, and 10 μM; MOR00208 mono treatment at concentrations of 0.01 pM, 0.1 pM, 1 pM, 10 pM, 100 pM and 10 nM, and the combination treatment of the listed venetoclax and MOR00208 concentrations. The following are used as controls: RefnnAb33, NK cells alone, MEC-1 cells alone or DMSO. In the venetoclax mono groups as well as in the MOR00208+venetoclax combination groups, target cells were pretreated with venetoclax or with DMSO control for 24 hours followed by removal of the dead cells prior to the ADCC assay. A dead cell removal kit was used to remove cells killed by the cytotoxic effect of venetoclax. The dead cell removal kit was implemented to mimick the removal of dead cells that also occurs in vivo and to prevent false negative interference of the dead cells with the subsequent ADCC assay. For the ADCC assay, target cells are counted and stained using CFSE at a final concentration of 1 μg/mL. For the control group, i.e. DMSO treated target cells, the effector: target (E:T) cell ratio was adjusted to 2:1, i.e. 1×10E6/nnL effector cells (NK cells) and 5×10E5/mL target cells (MEC-1 cells). […] The ADCC assays were performed as follows: using 96 well plates, 100 μL of MEC-1 target cell suspension was added per well, followed by 100 μL NK effector cell suspension per well. Mixed cell suspensions were centrifuged and resuspended in 100 μL antibody containing medium or the according control solution. The antibodies were diluted in a range of 10 nM-0.01 pM (corresponds to 1.5 μg/mL-1.5 pg/mL) in medium. The ADCC assays were incubated for 2 hours in a CO2-incubator at 37° C. After 10 minutes incubation on ice, 50 μL DAPI solution was added to each well (final concentration 1 μg/mL) and incubated for additional 10 minutes on ice. The ADCC measurements were performed on a BD FACSVerse instrument. Dead target cells were identified as DAPI positive cells.
# Combination Index (CI) calculations are completed in order to determine synergy of the combination of the exemplified anti-CD19 antibody and venetoclax as compared to MOR00208 and venetoclax alone. Such calculations are described in Ting-Chao Chou, Theoretical Basis, Experimental Design, and Computerized Simulation of Synergism and Antagonism in Drug Combination Studies, Pharmacol Rev 58:621-681 (2006), which is incorporated by reference in its entirety and Chou TC, Talalay P, Quantitative analysis of dose-effect relationships: the combined effects of multiple drugs or enzyme inhibitors. Adv Enzyme Regul 22: 27-55 (1984), which is incorporated by reference in its entirety. The methods of Chou-Talalay are carried out using the CI-isobol method.
# The median-effect equation models the effect of an inhibitor (such as a drug) as Fa/Fu=(D/D50)^m, where D is the dose, Fa and Fu is the fraction of the system affected and unaffected by the dose D (Fa+Fu=1); D50 is the dose producing the median effect (e.g. IC50, ED50, LD50). The constant m determines the shape of the dose-effect curve.
# [1] = system: TOLEDO human lymphoma cell tumors; experiment: Subcutaneous human lymphoma cell xenograft model in SCID mice; conditions: MOR00208 11 mg/kg i.p. twice weekly
# Procedure: Toledo cell line and culture medium were purchased and provided by Oncodesign. […] The cells are adherent to plastic flasks.
# A statistical test (analysis of variance, ANOVA) was performed to test for homogeneity between groups. MOR208 was injected intraperitoneally (IP) into the peritoneal cavity of mice. Combined substance was administered by oral gavage (per os, PO) via a gavage tube.
# The treatment schedule initiated at D23 was as follows:
# Animals from group 1 received one daily PO administration of PEP and one IP injection twice a week of PBS.
# Animals from group 4 received one IP injection of MOR208 at 11 mg/kg/inj on D23, D27, D30, D34, D37 and D41 followed by a single IP injection of MOR208 at 11 mg/kg/inj on D48 (twice a week).
# The viability and behavior were recorded every day. Body weights and tumor volume were measured twice a week. The length and width of the tumor were measured twice a week with calipers and the volume of the tumor was estimated by the formula:
substance,measurement,setting,value
"MOR00208: anti-CD19 antibody; heavy chain SEQ ID NO: 14, light chain SEQ ID NO: 15",Theoretical MOR00208 Dose,"MEC-1 cells; Exp 2, same effect as MOR00208 1.50E−03 μg/mL + venetoclax 10.0 μM",* 1.00E+03^ μg/mL
same,Theoretical MOR00208 Dose,"MEC-1 cells; Exp 2, same effect as MOR00208 1.50E−04 μg/mL + venetoclax 3.0 μM",0.000155 µg/mL
same,Theoretical MOR00208 Dose,"MEC-1 cells; Exp 2, same effect as MOR00208 1.50E−04 μg/mL + venetoclax 6.5 μM",0.000591 µg/mL
same,Theoretical MOR00208 Dose,"MEC-1 cells; Exp 2, same effect as MOR00208 1.50E−04 μg/mL + venetoclax 10.0 μM",0.00289 µg/mL
same,Theoretical MOR00208 Dose,"MEC-1 cells; Exp 2, same effect as MOR00208 1.50E−05 μg/mL + venetoclax 3.0 μM",1.94e-05 µg/mL
same,Theoretical MOR00208 Dose,"MEC-1 cells; Exp 2, same effect as MOR00208 1.50E−05 μg/mL + venetoclax 6.5 μM",0.000109 µg/mL
same,Theoretical MOR00208 Dose,"MEC-1 cells; Exp 2, same effect as MOR00208 1.50E−05 μg/mL + venetoclax 10.0 μM",0.000725 µg/mL
same,Theoretical MOR00208 Dose,"MEC-1 cells; Exp 2, same effect as MOR00208 1.50E−06 μg/mL + venetoclax 6.5 μM",2.9e-05 µg/mL
same,Theoretical MOR00208 Dose,"MEC-1 cells; Exp 2, same effect as MOR00208 1.50E−06 μg/mL + venetoclax 10.0 μM",0.000145 µg/mL
same,Actual MOR00208 Effect,"MEC-1 cells; Exp 3, MOR00208 1.50E+00 μg/mL",74.8 % dead cells
same,Actual MOR00208 Effect,"MEC-1 cells; Exp 3, MOR00208 1.50E−02 μg/mL",69.1 % dead cells
same,Actual MOR00208 Effect,"MEC-1 cells; Exp 3, MOR00208 1.50E−03 μg/mL",45.3 % dead cells
same,Actual MOR00208 Effect,"MEC-1 cells; Exp 3, MOR00208 1.50E−04 μg/mL",26.6 % dead cells
same,Actual MOR00208 Effect,"MEC-1 cells; Exp 3, MOR00208 1.50E−05 μg/mL",18.9 % dead cells
same,Actual MOR00208 Effect,"MEC-1 cells; Exp 3, MOR00208 1.50E−06 μg/mL",11.8 % dead cells
same,Theoretical MOR00208 Dose,"MEC-1 cells; Exp 3, same effect as MOR00208 1.50E+00 μg/mL + venetoclax 3.0 μM",* 1.00E+03^ μg/mL
same,Theoretical MOR00208 Dose,"MEC-1 cells; Exp 3, same effect as MOR00208 1.50E+00 μg/mL + venetoclax 6.5 μM",* 1.00E+03^ μg/mL
same,Theoretical MOR00208 Dose,"MEC-1 cells; Exp 3, same effect as MOR00208 1.50E+00 μg/mL + venetoclax 10.0 μM",* 1.00E+03^ μg/mL
same,Theoretical MOR00208 Dose,"MEC-1 cells; Exp 3, same effect as MOR00208 1.50E−02 μg/mL + venetoclax 3.0 μM",0.279 µg/mL
same,Theoretical MOR00208 Dose,"MEC-1 cells; Exp 3, same effect as MOR00208 1.50E−02 μg/mL + venetoclax 6.5 μM",* 1.00E+03^ μg/mL
same,Theoretical MOR00208 Dose,"MEC-1 cells; Exp 3, same effect as MOR00208 1.50E−02 μg/mL + venetoclax 10.0 μM",* 1.00E+03^ μg/mL
same,Theoretical MOR00208 Dose,"MEC-1 cells; Exp 3, same effect as MOR00208 1.50E−03 μg/mL + venetoclax 3.0 μM",0.00152 µg/mL
same,Theoretical MOR00208 Dose,"MEC-1 cells; Exp 3, same effect as MOR00208 1.50E−03 μg/mL + venetoclax 6.5 μM",0.00652 µg/mL
same,Theoretical MOR00208 Dose,"MEC-1 cells; Exp 3, same effect as MOR00208 1.50E−03 μg/mL + venetoclax 10.0 μM",* 1.00E+03^ μg/mL
same,Theoretical MOR00208 Dose,"MEC-1 cells; Exp 3, same effect as MOR00208 1.50E−04 μg/mL + venetoclax 3.0 μM",0.000218 µg/mL
same,Theoretical MOR00208 Dose,"MEC-1 cells; Exp 3, same effect as MOR00208 1.50E−04 μg/mL + venetoclax 6.5 μM",0.000602 µg/mL
same,Theoretical MOR00208 Dose,"MEC-1 cells; Exp 3, same effect as MOR00208 1.50E−04 μg/mL + venetoclax 10.0 μM",0.0042 µg/mL
same,Theoretical MOR00208 Dose,"MEC-1 cells; Exp 3, same effect as MOR00208 1.50E−05 μg/mL + venetoclax 3.0 μM",2.9e-05 µg/mL
same,Theoretical MOR00208 Dose,"MEC-1 cells; Exp 3, same effect as MOR00208 1.50E−05 μg/mL + venetoclax 6.5 μM",0.000157 µg/mL
same,Theoretical MOR00208 Dose,"MEC-1 cells; Exp 3, same effect as MOR00208 1.50E−05 μg/mL + venetoclax 10.0 μM",0.000983 µg/mL
same,Theoretical MOR00208 Dose,"MEC-1 cells; Exp 3, same effect as MOR00208 1.50E−06 μg/mL + venetoclax 6.5 μM",2.67e-05 µg/mL
same,Theoretical MOR00208 Dose,"MEC-1 cells; Exp 3, same effect as MOR00208 1.50E−06 μg/mL + venetoclax 10.0 μM",0.000371 µg/mL
same,Effect in ADCC cell killing assays (in words),MEC-1 cells; very low doses of MOR00208,little or no effect
same,Median Tumor Doubling Time,[1],8.0 days
same,Median Survival (Days Post-Randomization),[1]; humane endpoint tumor volume 2000 mm3,25.3 days
same,Median % Increase in Doubling Time (IDT),[1]; vs. PEP/PBS Control,18%
same,Median % Increase in Lifespan (ILS),[1]; vs. PEP/PBS Control,20%
